# Measurements published in patent US20090258873A1, “Novel tetrahydropyridothiophenes” (priority 2005, published 2009).
# Experiments:
# [1] = system: RKO (RKOp27) human colon adenocarcinoma cells; assay: Alamar Blue cell viability assay, anti-proliferative/cytotoxic activity on proliferating RKOp27 cells; type: cell-based; settings: no Ponasterone A, 72 hours incubation, read-out: IC50 RKO p27 uninduced (proliferating)
# Experimental: The anti-proliferative I cytotoxic activity of the compounds described herein, can be tested on subclones of RKO (RKOp27) human colon adenocarcinoma cells (Schmidt et al., Oncogene 19, 2423-2429; 2000) using the Alamar Blue cell viability assay (described in O'Brien et al. Eur J Biochem 267, 5421-5426, 2000). The compounds are dissolved as 20 mM solutions in dimethylsulfoxide (DMSO) and subsequently diluted in semi-logarithmic steps. DMSO dilutions are further diluted 1:100 into Dulbecco's modified Eagle's medium (DMEM) containing 10% fetal calf serum to a final concentration twice as much as the final concentration in the test. RKO subclones are seeded into 96 well flat bottom plates at a density of 5000 cells per well in a volume of 50 μl per well. 24 hours after seeding the 50 μl each of the compound dilutions in DMEM medium are added into each well of the 96 Well plate. Each compound dilution is tested as quadruplicates. Wells containing untreated control cells are filled with 50 μl DMEM medium containing 1% DMSO. The cells are then incubated with the substances for 72 hours at 37° C. in a hunified atmosphere containing 5% carbon dioxide. To determine the viability of the cells, 10 μl of an Alamar Blue solution (Biosource) are added and the fluorescence is measured at an extinction of 544 nm and an emission of 590 nm. For the calculation of the cell viability the emission value from untreated cells is set as 100% viability and the emission rates of treated cells are set in relation to the values of untreated cells. Viabilities are expressed as % values.
# The corresponding IC50 values of the compounds for anti-proliferative/cytotoxic activity are determined from the concentration-effect curves.
# Representative IC50 values for anti-proliferation/cytotoxicity determined in the mentioned assay follow from the following table A, in which the numbers of the compounds correspond to the numbers of the examples.
# [2] = system: RKO colon adenocarcinoma cells (RKOp27) arrested by ectopic p27Kip1; assay: Alamar Blue cell viability assay on RKOp27 cells arrested by p27Kip1 expression induced with Ponasterone A (cell cycle specific mode of action); type: cell-based; settings: Homo sapiens, RKOp27 cells arrested by p27Kip1 induced with 10 μM Ponasterone A, 72 hours incubation, read-out: IC50 RKO p27 induced (arrested)
# Experimental: To determine the cell cycle specific mode of action, subclones of RKO colon adenocarcinoma cells (RKOp27 or RKOp21 as described by Schmidt et al. in Oncogene 19, 2423-2429; 2000) are seeded into 96 well flat bottom plates at a density of 15000 cells per well in a volume of 50 μl per well in DMEM growth medium with 10% FCS containing 10 μM Ponasterone A. 24 hours after seeding the 50 μl each of the compound dilutions in DMEM medium are added into each well of the 96 Well plate. Each compound dilution is tested as quadruplicates. Wells containing untreated control cells are filled with 50 μl DMEM medium containing 1% DMSO. The cells are then incubated with the substances for 72 hours at 37° C. in a humidified atmosphere containing 5% carbon dioxide. To determine the viability of the cells, 10 μl of an Alamar Blue solution (Biosource) are added and the fluorescence was measured at an extinction of 544 nm and an emission of 590 nm. For the calculation of the cell viability the emission value from untreated cells is set as 100% viability and the emission rates of treated cells are set in relation to the values of untreated cells. Viabilities are expressed as % values. Viability is compared of proliferating cells grown in the absence of the inducer Ponasterone A, versus viability of cells arrested by the expression of ectopic p27Kip1 induced by Ponasterone A.
compound,measurement,setting,value
"N#Cc1c(NC(=O)CCc2ccccc2)sc2c1CCN(C(=O)CCN1CCOCC1)C2 [Example 18, N-[3-Cyano-6-(3-morpholin-4-yl-propanoyl)-4,5,6,7-tetrahydro-thieno[2,3-c]pyridin-2-yl]-3-phenyl-propionamide]",IC50,[1],300 to 2000 nM
same,IC50,[2],> 100000 nM
"N#Cc1c(NC(=O)CCc2ccco2)sc2c1CCN(C(=O)Cc1ccccn1)C2 [Example 10, N-[3-Cyano-6-(2-pyridin-2-yl-ethanoyi)-4,5,6,7-tetrahydro-thieno[2,3-c]pyridin-2-yl]-3-furan-2-yl-propionamide]",IC50,[1],≤ 300 nM
same,IC50,[2],> 100000 nM
"CC(CC(=O)Nc1sc2c(c1C#N)CCN(C(=O)CCc1ccccn1)C2)c1ccccc1 (racemic) [Example 29, (RS)—N-[3-Cyano-6-(3-pyridin-2-yl-propanoyl)-4,5,6,7-tetrahydro-thieno[2,3-c]pyridin-2-yl]-3-phenyl-butyramide]",IC50,[1],300 to 2000 nM
same,IC50,[2],> 100000 nM
"COCCOCC(=O)N1CCc2c(sc(NC(=O)CCc3ccco3)c2C#N)C1 [Example 9, N-{3-Cyano-6-[2-(2-methoxy-ethoxy)-ethanoyl]-4,5,6,7-tetrahydro-thieno[2,3-c]pyridin-2-yl}-3-furan-2-yl-propionamide]",IC50,[1],≤ 300 nM
same,IC50,[2],> 100000 nM
"Cc1cn(CC(=O)N2CCc3c(sc(NC(=O)CC(C)c4ccccc4)c3C#N)C2)cn1 (racemic) [Example 40, (RS)—N-{3-Cyano-6-[2-(4-methyl-imidazol-yl)-ethanoyl]-4,5,6,7-tetrahydro-thieno[2,3-c]pyridin-2-yl}-3-phenyl-butyramide]",IC50,[1],300 to 2000 nM
same,IC50,[2],≥ 40000 nM
"N#Cc1c(NC(=O)CCc2ccccc2)sc2c1CCN(C(=O)Cc1ccncc1)C2 [Example 20, N-[3-Cyano-6-(2-pyridin-4-yl-ethanoyl)-4,5,6,7-tetrahydro[2,3-c]pyridin-2-yl]-3-phenyl-propionamide]",IC50,[1],≤ 300 nM
same,IC50,[2],> 100000 nM
CC(CC(=O)Nc1sc2c(c1C#N)CCN(C(=O)Cn1ccnc1)C2)c1ccccc1 (racemic) [Example 26],IC50,[1],300 to 2000 nM
same,IC50,[2],> 100000 nM
"N#Cc1c(NC(=O)CCc2ccccc2)sc2c1CCN(C(=O)CCn1ccnc1)C2 [Example 16, N-[3-Cyano-6-(3-imidazol-1-yl-propanoyl)-4,5,6,7-tetrahydro-thieno[2,3-c]pyridin-2-yl]-3-phenyl-propionamide]",IC50,[1],≤ 300 nM
same,IC50,[2],> 100000 nM
"N#Cc1c(NC(=O)CCc2ccccc2)sc2c1CCN(C(=O)Cc1ccccn1)C2 [Example 3, N-[3-Cyano-(2-pyridin-2-yl-ethanoyl)-4,5,6,7-tetrahydro-thieno[2,3-]pyridin-2-yl]-3-phenyl-propionamide]",IC50,[1],≤ 300 nM
same,IC50,[2],> 100000 nM
CC(CC(=O)Nc1sc2c(c1C#N)CCN(C(=O)CCn1ccnc1)C2)c1ccccc1 (racemic) [Example 31],IC50,[1],300 to 2000 nM
same,IC50,[2],> 100000 nM
"N#Cc1c(NC(=O)CCc2ccccc2)sc2c1CCN(C(=O)Cc1cccnc1)C2 [Example 2, N-[3-Cyano-6-(2-pyridin-3-yl-ethanoyl)-4,5,6,7-tetrahydro-thieno[2,3-]pyridin-2-yl]-3-phenyl-propionamide]",IC50,[1],≤ 300 nM
same,IC50,[2],> 100000 nM
"Cc1nccn1CCC(=O)N1CCc2c(sc(NC(=O)CCc3ccccc3)c2C#N)C1 [Example 33, N-{3-Cyano-6-[3-(2-methyl-imidazol-1-yl)propanoyl]-4,5,6,7-tetrahydro-thieno[2,3-c]pyridin-2-yl}-3-phenyl-propionamide]",IC50,[1],300 to 2000 nM
same,IC50,[2],≥ 10000 nM
Cc1nc2ccccc2n1CCC(=O)N1CCc2c(sc(NC(=O)CCc3ccccc3)c2C#N)C1 [Example 21],IC50,[1],300 to 2000 nM
same,IC50,[2],> 100000 nM
"CC(=O)OCC(=O)N1CCc2c(sc(NC(=O)CCc3ccccc3)c2C#N)C1 [Example 7, Acetic acid 2-[3-cyano-2-(3-phenyl-propanoylamino)-4,7-dihydro-5H-thieno[2,3-c]pyridin-6-yl]-2-oxo-ethyl ester]",IC50,[1],≤ 300 nM
same,IC50,[2],> 100000 nM
"Cc1cn(CCC(=O)N2CCc3c(sc(NC(=O)CCc4ccccc4)c3C#N)C2)cn1 [Example 45, N-[3-Cyano-6-[3-(4-methyl-imidazol-1-yl)-propanoyl]-4,5,6,7-tetrahydro-thieno[2,3-c]pyridin-2-yl]-3-phenyl-propionamide]",IC50,[1],300 to 2000 nM
same,IC50,[2],≥ 10000 nM
"N#Cc1c(NC(=O)CCC2CCCCC2)sc2c1CCN(C(=O)Cc1ccccn1)C2 [Example 53, N-[3-Cyano-6-(2-pyridin-2-yl-ethanoyl)-4,5,6,7-tetrahydro-thieno[2,3-c]pyridin-2-yl]-3-cyclohexyl-propionamide]",IC50,[1],≤ 300 nM
same,IC50,[2],> 100000 nM
"N#Cc1c(NC(=O)CCc2ccco2)sc2c1CCN(C(=O)CCn1ccnc1)C2 [Example 15, N-[3-Cyano-6-(3-Imidazo-1-yl-propanoyl)-4,5,6,7-tetrahydro-thieno[2,3-c]pyridin-2-yl]-3-furan-2-yl-propionamide]",IC50,[1],≤ 300 nM
same,IC50,[2],> 100000 nM
"COCC(=O)N1CCc2c(sc(NC(=O)CCc3ccccc3)c2C#N)C1 [Example 4, N-[3-Cyano-6-(2-methoxy-ethanoyl)-4,5,6,7-tetrahydro-thieno[2,3-c]pyridin-2-yl]-3-phenyl-propionamide]",IC50,[1],≤ 300 nM
same,IC50,[2],> 100000 nM
"CN1CCN(CCC(=O)N2CCc3c(sc(NC(=O)CCc4ccccc4)c3C#N)C2)CC1 [Example 17, N-[3-Cyano-6-[3-(4-methyl-piperazin-1-yl)-propanoyl]-4,5,6,7-tetrahydro-thieno[2,3-c]pyridin-2-yl]-3-phenyl-propionamide]",IC50,[1],300 to 2000 nM
same,IC50,[2],≥ 40000 nM
"CC(CC(=O)Nc1sc2c(c1C#N)CCN(C(=O)CCc1cccnc1)C2)c1ccccc1 (racemic) [Example 25, (RS)—N-[3-Cyano-6-(3-pyridin-3-yl-propanoyl)-4,5,6,7-tetrahydro-thieno[2,3-c]pyridin-2-yl]-3-phenyl-butyramide]",IC50,[1],300 to 2000 nM
same,IC50,[2],> 100000 nM
"Cc1nccn1CC(=O)N1CCc2c(sc(NC(=O)CCc3ccccc3)c2C#N)C1 [Example 38, N-{3-Cyano-6-[2-(2-methyl-imidazol-1-yl)-ethanoyl]-4,5,6,7-tetrahydro-thieno[2,3-c]pyridin-2-yl}-3-phenyl-propionamide]",IC50,[1],≤ 300 nM
same,IC50,[2],> 100000 nM
"CC(CC(=O)Nc1sc2c(c1C#N)CCN(C(=O)CCc1nccn1C)C2)c1ccccc1 (racemic) [Example 34, (RS)—N-{3-Cyano-6-[3-(1-methyl-1H-imidazol-2-yl)-propanoyl]-4,5,6,7-tetrahydro-thieno[2,3-c]pyridin-2-yl}-3-phenyl-butyramide]",IC50,[1],≤ 300 nM
same,IC50,[2],≥ 10000 nM
"Cc1nccn1CCC(=O)N1CCc2c(sc(NC(=O)CC(C)c3ccccc3)c2C#N)C1 (racemic) [Example 32, (RS)—N-{3-Cyano-6-[3-(2-methyl-imidazol-1-yl)-propanoyl]-4,5,6,7-tetrahydro-thieno[2,3-c]pyridin-2-yl}-3-phenyl-butyramide]",IC50,[1],300 to 2000 nM
same,IC50,[2],≥ 10000 nM
"N#Cc1c(NC(=O)CCc2ccccc2)sc2c1CCN(C(=O)Cn1ccnc1)C2 [Example 19, N-[3-Cyano-6-(2-imidazol-1-yl-ethanoyl)-4,5,6,7-tetrahydro-thieno[2,3-c]pyridin-2-yl]-3-phenyl-propionamide]",IC50,[1],300 to 2000 nM
same,IC50,[2],> 100000 nM
"Cc1cn(CC(=O)N2CCc3c(sc(NC(=O)CCc4ccccc4)c3C#N)C2)c(C)n1 [Example 43, N-{3-Cyano 6-[2-(2,4-dimethyl-imidazol-1-yl)-ethanoyl]-4,5,6,7-tetrahydro-thieno[2,3-c]pyridin-2-yl}-3-phenyl-propionamide]",IC50,[1],300 to 2000 nM
same,IC50,[2],≥ 40000 nM
N#Cc1c(NC(=O)CCC2CCCCC2)sc2c1CCN(C(=O)CCn1ccnc1)C2 [Example 58],IC50,[1],300 to 2000 nM
same,IC50,[2],> 100000 nM
